In US12281108B2, “Pyrrolidinone derivatives as formyl peptide 2 receptor agonists” (BRISTOL-MYERS SQUIBB COMPANY, priority 2018, dated 2025):
Where two headings read alike, the source gives them in different places.

What was measured:
human FPR2 receptors = biological target: T1, human FPR2 receptors (Homo sapiens, UniProt P25090); test: FPR2 cAMP assay in CHO cells overexpressing human FPR2 (HTRF); format: cell-based
T1 sequence (P25090 1-351): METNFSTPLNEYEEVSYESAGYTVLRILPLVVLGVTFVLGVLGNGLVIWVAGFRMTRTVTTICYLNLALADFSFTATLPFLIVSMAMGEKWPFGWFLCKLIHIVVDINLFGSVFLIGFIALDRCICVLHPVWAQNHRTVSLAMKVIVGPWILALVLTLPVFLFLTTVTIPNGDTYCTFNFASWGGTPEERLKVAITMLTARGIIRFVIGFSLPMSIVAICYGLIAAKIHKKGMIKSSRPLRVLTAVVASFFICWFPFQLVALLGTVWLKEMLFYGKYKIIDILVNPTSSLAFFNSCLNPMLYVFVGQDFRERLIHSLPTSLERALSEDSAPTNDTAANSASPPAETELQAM
Source text: (§1) N-formyl peptide receptors (FPRs) are a family of chemo attractant receptors that facilitate leukocyte response during inflammation. FPRs belong to the seven-transmembrane G protein-coupled receptor superfamily and are linked to inhibitory G-proteins (Gi). Three family members (FPR1, FPR2 and FPR3) have been identified in humans and are predominantly found in myeloid cells with varied distribution and have also been reported in multiple organs and tissues. After agonist binding, the FPRs activate a multitude of physiological pathways, such as intra cellular signaling transduction, Ca^2+ mobilization and transcription. The family interacts with a diverse set of ligands that includes proteins, polypeptides and fatty acid metabolites which activate both pro-inflammatory and pro-resolution downstream responses. FPR2 and FPR1 Cyclic Adenosine Monophosphate (cAMP) Assays were used to measure the in vitro activity of the compounds disclosed in this application.
FPR2 and FPR1 Cyclic Adenosine Monophosphate (cAMP) Assays. A mixture of forskolin (5 μM final for FPR2 or 10 μM final for FPR1) and IBMX (200 μM final) were added to 384-well Proxiplates (Perkin-Elmer) pre-dotted with test compounds in DMSO (1% final) at final concentrations in the range of 0.020 nM to 100 μM. Chinese Hamster Ovary cells (CHO) overexpressing human FPR1 or human FPR2 receptors were cultured in F-12 (Ham's) medium supplemented with 10% qualified FBS, 250 μg/ml zeocin and 300 μg/ml hygromycin (Life Technologies). Reactions were initiated by adding 2,000 human FPR2 cells per well or 4,000 human FPR1 cells per well in Dulbecco's PBS (with calcium and magnesium) (Life Technologies) supplemented with 0.1% BSA (Perkin-Elmer). The reaction mixtures were incubated for 30 min at room temperature. The level of intracellular cAMP was determined using the HTRF HiRange cAMP assay reagent kit (Cisbio) according to manufacturer's instruction. Solutions of cryptate conjugated anti-cAMP and d2 flurorophore-labelled cAMP were made in a supplied lysis buffer separately. Upon completion of the reaction, the cells were lysed with equal volume of the d2-cAMP solution and anti-cAMP solution. After a 1-h room temperature incubation, time-resolved fluorescence intensity was measured using the Envision (Perkin-Elmer) at 400 nm excitation and dual emission at 590 nm and 665 nm. A calibration curve was constructed with an external cAMP standard at concentrations ranging from 1 μM to 0.1 pM by plotting the fluorescent intensity ratio from 665 nm emission to the intensity from the 590 nm emission against cAMP concentrations. The potency and activity of a compound to inhibit cAMP production was then determined by fitting to a 4-parametric logistic equation from a plot of cAMP level versus compound concentrations.

human FPR1 receptors = biological target: T2, human FPR1 receptors (Homo sapiens, UniProt P21462); test: FPR1 cAMP assay in CHO cells overexpressing human FPR1 (HTRF); format: cell-based; conditions: forskolin 10 μM, inhibition of cAMP production, read-out: hFPR1 cAMP EC50
T2 sequence (P21462 1-350): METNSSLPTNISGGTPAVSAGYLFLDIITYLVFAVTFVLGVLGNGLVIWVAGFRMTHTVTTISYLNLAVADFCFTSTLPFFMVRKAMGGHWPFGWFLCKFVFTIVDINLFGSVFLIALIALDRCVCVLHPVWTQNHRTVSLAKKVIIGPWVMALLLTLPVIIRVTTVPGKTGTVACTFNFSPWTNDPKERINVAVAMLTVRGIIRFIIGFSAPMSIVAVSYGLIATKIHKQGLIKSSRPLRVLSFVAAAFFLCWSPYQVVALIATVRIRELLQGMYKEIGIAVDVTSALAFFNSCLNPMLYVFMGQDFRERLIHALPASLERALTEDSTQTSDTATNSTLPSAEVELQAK
Source text: as §1
FPR2 and FPR1 Cyclic Adenosine Monophosphate (cAMP) Assays. A mixture of forskolin (5 μM final for FPR2 or 10 μM final for FPR1) and IBMX (200 μM final) were added to 384-well Proxiplates (Perkin-Elmer) pre-dotted with test compounds in DMSO (1% final) at final concentrations in the range of 0.020 nM to 100 μM. Chinese Hamster Ovary cells (CHO) overexpressing human FPR1 or human FPR2 receptors were cultured in F-12 (Ham's) medium supplemented with 10% qualified FBS, 250 μg/ml zeocin and 300 μg/ml hygromycin (Life Technologies). […] The level of intracellular cAMP was determined using the HTRF HiRange cAMP assay reagent kit (Cisbio) according to manufacturer's instruction. […] After a 1-h room temperature incubation, time-resolved fluorescence intensity was measured using the Envision (Perkin-Elmer) at 400 nm excitation and dual emission at 590 nm and 665 nm. […] The potency and activity of a compound to inhibit cAMP production was then determined by fitting to a 4-parametric logistic equation from a plot of cAMP level versus compound concentrations.

[1] = CHO cells overexpressing human FPR2, forskolin 5 μM, inhibition of cAMP production, read-out: hFPR2 cAMP2 EC50
[2] = hFPR2 assay, potency bins, read-out: hFPR2 agonist activity EC50

Row | SMILES | EC50 (human FPR2 receptors; [1]) | EC50 (human FPR1 receptors) | EC50 (human FPR2 receptors; [2])
1 | COc1cc(F)c([C@@H]2CNC(=O)[C@H]2Nc2cc(-c3ccc(C(F)F)cc3)on2)c(F)c1 [Example 22, (3S,4R)-4-(2,6-difluoro-4-methoxyphenyl)-3-({5-[4-(difluoromethyl)phenyl]-1,2-oxazol-3-yl}amino)pyrrolidin-2-one] | 890 nM | 2900 nM | –
2 | COc1cc(F)c([C@@H]2CNC(=O)[C@H]2Nc2nnc(-c3ccc(SC(F)(F)F)cc3)o2)c(F)c1 [Example 18, (3S,4R)-4-(2,6-difluoro-4-methoxyphenyl)-3-[(5-{4-[(trifluoromethyl)sulfanyl]phenyl}-1,3,4-oxadiazol-2-yl)amino]pyrrolidin-2-one] | 6.7 nM | 160 nM | –
3 | COc1cc(F)c([C@@H]2CNC(=O)[C@H]2Nc2nnc(-c3ccc(Oc4ccc(C(F)(F)F)nc4)cc3)o2)c(F)c1 [Example 58, (3S,4R)-4-(2,6-difluoro-4-methoxyphenyl)-3-{[5-(4-{[6-(trifluoromethyl)pyridin-3-yl]oxy}phenyl)-1,3,4-oxadiazol-2-yl]amino}pyrrolidin-2-one] | 71 nM | 870 nM | –
4 | COc1cc(F)c([C@@H]2CNC(=O)[C@H]2Nc2nnc(-c3ccc(Oc4cccc(OC)n4)cc3)o2)c(F)c1 [Example 67, (3S,4R)-4-(2,6-difluoro-4-methoxyphenyl)-3-[(5-{4-[(6-methoxypyridin-2-yl)oxy]phenyl}-1,3,4-oxadiazol-2-yl)amino]pyrrolidin-2-one] | – | – | 150 to 1000 nM
5 | COc1cc(F)c([C@@H]2CNC(=O)[C@H]2Nc2nnc(-c3ccc(OC(F)(F)F)cc3)s2)c(F)c1 [Example 30, (3S,4R)-4-(2,6-difluoro-4-methoxyphenyl)-3-({5-[4-(trifluoromethoxy)phenyl]-1,3,4-thiadiazol-2-yl}amino)pyrrolidin-2-one] | – | – | 40 to 150 nM
6 | COc1cc(F)c([C@@H]2CNC(=O)[C@H]2Nc2nnc(-c3ccc(Oc4cc(Cl)ccn4)cc3)o2)c(F)c1 [Example 68, (3S,4R)-3-[(5-{4-[(4-chloropyridin-2-yl)oxy]phenyl}-1,3,4-oxadiazol-2-yl)amino]-4-(2,6-difluoro-4-methoxyphenyl)pyrrolidin-2-one] | – | – | ≤ 40 nM
7 | COc1cc(F)c([C@@H]2CNC(=O)[C@H]2Nc2nnc(C(=O)NCc3ccc(Cl)cc3)o2)c(F)c1 [Example 53, N-[(4-chlorophenyl)methyl]-5-{[(3S,4R)-4-(2,6-difluoro-4-methoxyphenyl)-2-oxopyrrolidin-3-yl]amino}-1,3,4-oxadiazole-2-carboxamide] | – | – | 40 to 150 nM
8 | COc1cc(F)c([C@@H]2CNC(=O)[C@H]2Nc2nnc(-c3ccc(Oc4cnccn4)cc3)o2)c(F)c1 [Example 49, (3S,4R)-4-(2,6-difluoro-4-methoxyphenyl)-3-({5-[4-(pyrazin-2-yloxy)phenyl]-1,3,4-oxadiazol-2-yl}amino)pyrrolidin-2-one] | – | – | 40 to 150 nM
9 | COc1cc(F)c([C@@H]2CNC(=O)[C@H]2Nc2nc3ccc(Cl)cc3o2)c(F)c1 [Example 1, (3S,4R)-3-[(6-chloro-1,3-benzoxazol-2-yl)amino]-4-(2,6-difluoro-4-methoxyphenyl)pyrrolidin-2-one] | – | – | 150 to 1000 nM
10 | COc1cc(F)c([C@@H]2CNC(=O)[C@H]2Nc2nnc(-c3ccc(F)c(F)c3)o2)c(F)c1 [Example 5, (3S,4R)-4-(2,6-difluoro-4-methoxyphenyl)-3-{[5-(3,4-difluorophenyl)-1,3,4-oxadiazol-2-yl]amino}pyrrolidin-2-one] | – | – | 150 to 1000 nM
